Assay results as given in patent US20230031406A1, “COMPOUNDS AND COMPOSITIONS FOR TREATING CONDITIONS ASSOCIATED WITH NLRP ACTIVITY” (Novartis AG, priority 2018, published 2023).

Each compound was assayed on PMA-differentiated THP-1 cells (assay: IL-1β production in PMA-differentiated THP-1 cells stimulated with gramicidin (hTHP-1 assay containing 2% fetal bovine serum; Procedures 1 and 2)). Settings: Homo sapiens, THP-1, Table B1; 2% fetal bovine serum; class symbols; read-out: Average IC50 of compounds in hTHP-1 assay: hTHP-1 IC50.
Assay type: cell-based, human
Summary of the method: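 PMA 20 ng/ml 16-18 h → trypsinise → 50,000 cells/well, RPMI/2% FBS; cpd 1 h (11-pt, 100–0.0017 μM; DMSO 0.37%); gramicidin 5 μM, 2 h; spin; supernatant IL-1β via HTRF.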

SMILES	IC50 [µM]
CC(C)(O)c1cc(F)c(S(N)(=O)=NC(=O)Nc2c3c(nc4c2CCC4(C)C)CCC3)s1 (centres unmarked) [Compound 102, N′-((3,3-dimethyl-1,2,3,5,6,7-hexahydrodicyclopenta[b,e]pyridin-8-yl)carbamoyl)-3-fluoro-5-(2-hydroxypropan-2-yl)thiophene-2-sulfonimidamide]	0.04 to 0.2
CC(C)(O)c1nc(CO)c(S(N)(=O)=NC(=O)Nc2c3c(nc4c2CCC4)CCC3)s1 (centres unmarked) [Compound 150, N′-((1,2,3,5,6,7-hexahydrodicyclopenta[b,e]pyridin-8-yl)carbamoyl)-4-(hydroxymethyl)-2-(2-hydroxypropan-2-yl)thiazole-3-sulfonimidamide]	1 to 5
CC1CCc2c1nc1c(c2NC(=O)N=S(N)(=O)c2ccc(CN(C)C)cc2)CCC1 (single isomer, unassigned) [Compound 134ba, (R,R) or (R,S)-4-((dimethyl-amino)methyl)-N′-((3-methyl-1,2,3,5,6,7-hexa-hydrodicyclo-penta[b,e]pyridin-8-yl)carbamoyl)benzene-sulfonimidamide]	1 to 5

Same assay, conditions: Homo sapiens, THP-1, Table B2; 2% fetal bovine serum; class symbols; read-out: hTHP-1 IC50

SMILES	IC50 [µM]
CC(C)(O)c1cc(S(N)(=O)=NC(=O)Nc2c3c(nc4c2CCC4(C)C)CCC3)nn1-c1ccccc1 (centres unmarked) [Compound 663, N′-((3,3-dimethyl-1,2,3,5,6,7-hexahydrodicyclopenta[b,e]pyridin-8-yl)carbamoyl)-5-(2-hydroxypropan-2-yl)-1-phenyl-1H-pyrazole-3-sulfonimidamide]	1 to 5
Cc1cn(C(C)C)nc1S(N)(=O)=NC(=O)Nc1c2c(nc3c1CCC3)CCC2 (centres unmarked) [Compound 687, N′-((1,2,3,5,6,7-hexahydrodicyclopenta[b,e]pyridin-8-yl)carbamoyl)-1-isopropyl-4-methyl-1H-pyrazole-3-sulfonimidamide]	5 to 30
CC(C)c1nc(C(F)(F)F)nc(C(C)C)c1NC(=O)N=S(N)(=O)c1sc(C(C)(C)O)nc1CO (centres unmarked) [Compound 713]	1 to 5
CC(C)c1cc(C#N)nc(C(C)C)c1NC(=O)NS(=N)(=O)c1sc(C(C)(C)O)nc1CO (centres unmarked) [Compound 696, N-((6-cyano-2,4-diisopropylpyridin-3-yl)carbamoyl)-4-(hydroxymethyl)-2-(2-hydroxypropan-2-yl)thiazole-5-sulfonimidamide]	5 to 30
C[C@@H]1CCc2c1nc1c(c2NC(=O)N=S(N)(=O)c2ccn(-c3ccccc3)n2)CCC1 (single isomer, unassigned) [Compound 700b, (R) or (S)-N′-(((R)-3-methyl-1,2,3,5,6,7-hexahydrodicyclopenta [b,e]pyridin-8-yl)carbamoyl)-1-phenyl-1H-pyrazole-3-sulfonimidamide]	0.2 to 1

Same assay, conditions: Homo sapiens, THP-1, Table B2; 2% fetal bovine serum; numeric bounds; read-out: hTHP-1 IC50

SMILES	IC50 [µM]
CCOC(=O)c1nc2c(c(NC(=O)N=S(N)(=O)c3cnc(C(C)(C)O)s3)c1C)CCC2 (centres unmarked) [Compound 706]	> 30

Same assay, conditions: Homo sapiens, THP-1, Table B3; hTHP-1 assay, 2% fetal bovine serum; class symbols; read-out: IC50

SMILES	IC50 [µM]
CCc1c(CC(F)(F)F)nc2c(c1NC(=O)N=S(N)(=O)c1sc(C(C)(C)O)cc1F)CCC2 (centres unmarked) [Example 594, N′-((3-ethyl-2-(2,2,2-trifluoroethyl)-6,7-dihydro-5H-cyclopenta[b]pyridin-4-yl)carbamoyl)-3-fluoro-5-(2-hydroxypropan-2-yl)thiophene-2-sulfonimidamide]	1 to 5
CC1(C)CCc2c1nc1c(c2NC(=O)N=[S@@](N)(=O)c2cc([C@](C)(O)CO)cs2)CCC1 [Example 651, (R)-4-((S)-1,2-dihydroxypropan-2-yl)-N′-((3,3-dimethyl-1,2,3,5,6,7-hexahydrodicyclopenta[b,e]pyridin-8-yl)carbamoyl) thiophene-2-sulfonimidamide]	0.04 to 0.2
Cc1c(C(F)(F)F)nc2c(c1NC(=O)N=S(N)(=O)c1cc(CO)n(C(C)C)n1)CCC2 (single isomer, unassigned) [Example 719, (S) or (R)-5-(hydroxymethyl)-1-isopropyl-N′-((3-methyl-2-(trifluoromethyl)-6,7-dihydro-5H-cyclopenta[b]pyridin-4-yl)carbamoyl)-1H-pyrazole-3-sulfonimidamide]	1 to 5

Same assay, conditions: Homo sapiens, THP-1, Table B3; hTHP-1 assay, 2% fetal bovine serum; numeric values; read-out: IC50

SMILES	IC50 [µM]
Cc1c(C(F)(F)F)nc2c(c1NC(=O)N=S(N)(=O)c1ccn(C)n1)CCC2 (single isomer, unassigned) [Example 694, (S) or (R)-1-Methyl-N′-((3-methyl-2-(trifluoromethyl)-6,7-dihydro-5H-cyclopenta[b]pyridin-4-yl)carbamoyl)-1H-pyrazole-3-sulfonimidamide]	> 30

Same assay, conditions: Table B1; 2% fetal bovine serum; class symbols; read-out: Average IC50 of compounds in hTHP-1 assay: hTHP-1 IC50

SMILES	IC50 [µM]
CC1CCc2c1nc1c(c2NC(=O)N=S(N)(=O)c2cc(C(C)(C)O)cs2)CCC1C [Compound 131b, (S) and (S,R,R) and (S,S,S)-N′-((3,5-dimethyl-1,2,3,5,6,7-hexahydro-dicyclopenta[b,e]py-ridin-8-yl)carbamoyl)-4-(2-hydroxypropan-2-yl)thiophene-2-sulfonimidamide]	5 to 30
CC(C)(O)c1csc(S(N)(=O)=NC(=O)Nc2c3c(nc4c2CCC4)CCC3)c1 (single isomer, unassigned) [Compound 155b, (S) or (R)-N′-((1,2,3,5,6,7-hexahydrodicyclo-penta[b,e]pyridin-8-yl)carbamoyl)-4-(2-hydroxypropan-2-yl)thiophene-2-sulfonimidamide]	1 to 5
CC1CCc2c1nc1c(c2NC(=O)N=S(N)(=O)c2ccn(C(F)F)n2)CCC1 (single isomer, unassigned) [Compound 184b, (S,S) or (S,R)-1-(difluoro-methyl)-N′-((3-methyl-1,2,3,5,67-hexahydro-dicyclopenta[b,e]pyridin-8-yl)carbamoyl)-1H-pyrazole-3-sulfonimidamide]	5 to 30
CC1CCc2c1nc1c(c2NC(=O)N=S(N)(=O)c2ccn(C(C)C)n2)CCC1 (single isomer, unassigned) [Compound 129bb, (S,R) or (S,S)-1-isopropyl-N′-((3-methyl-1,2,3,5,6,7-hexa-hydrodicyclo-penta[b,e]pyridin-8-yl)carbamoyl)-1H-pyrazole-3-sulfonimidamide]	5 to 30
CC(C)(O)c1ncc(S(N)(=O)=NC(=O)Nc2c3c(nc4c2CCC4F)CCC3)s1 (single isomer, unassigned) [Compound 183c, (R,S) or (R,R)-N′-((3-fluoro-1,2,3,5,6,7-hexahydrodicyclo-penta[b,e]pyridin-8-yl)carbamoyl)-2-(2-hydroxypropan-2-yl)thiazole-5-sulfonimidamide]	5 to 30
CC(C)(O)c1ncc(S(N)(=O)=NC(=O)Nc2c3c(nc4c2CCC4(C)C)CCC3)s1 (single isomer, unassigned) [Compound 153a, (S) or (R)-N′-((3,3-dimethyl-1,2,3,5,6,7-hexahydro-dicyclopenta[b,e]pyridin-8-yl)carbamoyl)-2-(2-hydroxypropan-2-yl)thiazole-5-sulfonimidamide]	5 to 30

Same assay, conditions: Table B2; 2% fetal bovine serum; class symbols; read-out: hTHP-1 IC50

SMILES	IC50 [µM]
Cc1c(C(F)(F)F)nc2c(c1NC(=O)N=S(N)(=O)c1sc(C(C)(C)O)cc1F)CCC2 (single isomer, unassigned) [Compound 632a, (R) or (S)-3-Fluoro-5-(2-hydroxypropan-2-yl)-N′-((3-methyl-2-(trifluoromethyl)-6,7-dihydro-5H-cyclopenta[b]pyridin-4-yl)carbamoyl) thiophene-2-sulfonimidamide]	0.04 to 0.2
CCc1nc2c(c(NC(=O)N=S(N)(=O)c3cc(C(C)(C)O)cs3)c1C1CC1)CCC2 (single isomer, unassigned) [Compound 654a, (S) or (R)-N′-((3-cyclopropyl-2-ethyl-6,7-dihydro-5H-cyclopenta[b]pyridin-4-yl)carbamoyl)-4-(2-hydroxypropan-2-yl)thiophene-2-sulfonimidamide]	1 to 5
C[C@@H]1CCc2c1nc1c(c2NC(=O)N=S(N)(=O)c2cc(F)c(C(C)(C)O)s2)CCC1 (single isomer, unassigned) [Compound 616b, (S) or (R)-4-Fluoro-5-(2-hydroxypropan-2-yl)-N′-(((R)-3-methyl-1,2,3,5,6,7-hexahydrodicyclopenta [b,e]pyridin-8-yl)carbamoyl) thiophene-2-sulfonimidamide]	5 to 30
CCC1CCc2c1nc1c(c2NC(=O)N=S(N)(=O)c2sc(C(C)(C)O)cc2F)CCC1 (single isomer, unassigned) [Compound 671b, (S, R) or (S, S) or (R, S) or (R, R)-N′-((3-ethyl-1,2,3,5,6,7-hexahydrodicyclopenta [b,e]pyridin-8-yl)carbamoyl)-3-fluoro-5-(2-hydroxypropan-2-yl) thiophene-2-sulfonimidamide]	5 to 30
C[C@@H]1CCc2c1nc1c(c2NC(=O)N=S(N)(=O)c2cc(F)c(C(C)(C)O)s2)CCC1 (single isomer, unassigned) [Compound 616a, (R) or (S)-4-Fluoro-5-(2-hydroxypropan-2-yl)-N′-(((R)-3-methyl-1,2,3,5,6,7-hexahydrodicyclopenta [b,e]pyridin-8-yl)carbamoyl) thiophene-2-sulfonimidamide]	0.04 to 0.2

Same assay, conditions: Table B3; hTHP-1 assay, 2% fetal bovine serum; class symbols; read-out: IC50

SMILES	IC50 [µM]
CC(C)(O)c1cc(F)c(S(N)(=O)=NC(=O)Nc2c3c(nc(C(F)(F)F)c2C2CC2)CCC3)s1 (single isomer, unassigned) [Example 660, (S) or (R)-N′-((3-cyclopropyl-2-(trifluoromethyl)-6,7-dihydro-5H-cyclopenta[b]pyridin-4-yl)carbamoyl)-3-fluoro-5-(2-hydroxypropan-2-yl) thiophene-2-sulfonimidamide]	5 to 30
CC(C)(O)c1cc(F)c(S(N)(=O)=NC(=O)Nc2c3c(nc(C4CC4)c2C2CC2)CCC3)s1 (single isomer, unassigned) [Example 697, (R) or (S)-N′-((2,3-dicyclopropyl-6,7-dihydro-5H-cyclopenta[b]pyridin-4-yl)carbamoyl)-3-fluoro-5-(2-hydroxypropan-2-yl) thiophene-2-sulfonimidamide]	0.04 to 0.2
